Reference: patent US8129371B2, “Thienopyrimidine and pyrazolopyrimidine compounds and their use as mTOR kinase and PI3 kinase inhibitors” (Wyeth LLC, priority 2007, dated 2012)

Legend:
[1] = tested on: breast line MDA468; test: In vitro cell culture growth assay (MTS), MDA468; type: cell-based; settings: Homo sapiens, 72 h, MDA468 cells, three days after drug treatment
Procedure, shortened: (§1)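 Plate cells; add inhibitors on day 1; after 3 days' treatment, add MTS; read A490; express as percent growth of vehicle-treated control.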

[2] = tested on: prostate line LNCap; test: In vitro cell culture growth assay (MTS), LNCap; type: cell-based; settings: Homo sapiens, LNCaP, 72 h, LNCap cells, three days after drug treatment
Procedure, shortened: as §1

[3] = molecular target: T1, PI3K (Homo sapiens, UniProt P48736); test: Fluorescence polarization assay for PI3K; type: biochemical; settings: PI3 Kinase γ; read-out: PI3 Kinase γ IC50
T1 construct: PI3 Kinase γ IC50; other: PI3 Kinase γ; other: PI3 Kinase γ isoform, fluorescence polarization
T1 sequence (P48736 whole entry, canonical isoform): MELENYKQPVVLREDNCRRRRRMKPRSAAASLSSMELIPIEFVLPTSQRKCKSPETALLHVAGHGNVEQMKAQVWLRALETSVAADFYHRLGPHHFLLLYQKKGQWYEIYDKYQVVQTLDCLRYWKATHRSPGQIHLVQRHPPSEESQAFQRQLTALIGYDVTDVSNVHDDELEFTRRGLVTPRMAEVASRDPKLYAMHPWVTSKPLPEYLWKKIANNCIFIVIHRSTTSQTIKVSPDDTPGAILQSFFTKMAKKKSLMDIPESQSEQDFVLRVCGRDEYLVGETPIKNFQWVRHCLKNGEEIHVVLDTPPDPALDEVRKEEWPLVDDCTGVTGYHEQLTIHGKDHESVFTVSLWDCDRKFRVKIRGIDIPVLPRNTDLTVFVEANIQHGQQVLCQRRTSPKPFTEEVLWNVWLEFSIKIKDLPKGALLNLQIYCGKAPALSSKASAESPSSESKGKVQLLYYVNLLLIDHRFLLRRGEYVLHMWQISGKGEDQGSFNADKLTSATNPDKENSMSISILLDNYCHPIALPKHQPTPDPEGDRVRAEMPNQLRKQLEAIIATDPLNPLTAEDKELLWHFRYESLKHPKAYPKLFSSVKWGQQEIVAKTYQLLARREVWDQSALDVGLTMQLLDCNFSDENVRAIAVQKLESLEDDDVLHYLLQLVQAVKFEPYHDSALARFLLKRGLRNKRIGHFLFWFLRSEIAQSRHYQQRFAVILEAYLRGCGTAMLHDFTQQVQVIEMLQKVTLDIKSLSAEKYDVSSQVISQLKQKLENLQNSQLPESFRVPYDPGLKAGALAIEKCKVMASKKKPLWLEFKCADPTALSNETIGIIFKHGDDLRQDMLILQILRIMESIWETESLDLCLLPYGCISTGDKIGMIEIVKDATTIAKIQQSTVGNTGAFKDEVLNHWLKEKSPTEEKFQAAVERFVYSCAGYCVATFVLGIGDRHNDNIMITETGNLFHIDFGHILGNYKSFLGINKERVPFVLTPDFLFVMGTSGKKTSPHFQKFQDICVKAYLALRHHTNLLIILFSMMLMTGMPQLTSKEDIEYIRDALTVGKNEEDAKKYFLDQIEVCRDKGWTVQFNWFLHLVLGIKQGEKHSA
Procedure, shortened: (§2)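 PI3K was preincubated with compound (final DMSO 1%), and the reaction was started with PIP2/ATP substrate and run 30–60 min. It was stopped with a detector mix giving 10 nM red probe and 70 nM GST-GRP.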

[4] = molecular target: T2, PI3K (Homo sapiens, UniProt P42336); test: Fluorescence polarization assay for PI3K; type: biochemical; settings: PI3 Kinase α; read-out: PI3 Kinase α IC50
T2 construct: PI3 Kinase α IC50; other: PI3 Kinase α; other: PI3 Kinase α isoform, fluorescence polarization
T2 sequence (P42336 whole entry, canonical isoform): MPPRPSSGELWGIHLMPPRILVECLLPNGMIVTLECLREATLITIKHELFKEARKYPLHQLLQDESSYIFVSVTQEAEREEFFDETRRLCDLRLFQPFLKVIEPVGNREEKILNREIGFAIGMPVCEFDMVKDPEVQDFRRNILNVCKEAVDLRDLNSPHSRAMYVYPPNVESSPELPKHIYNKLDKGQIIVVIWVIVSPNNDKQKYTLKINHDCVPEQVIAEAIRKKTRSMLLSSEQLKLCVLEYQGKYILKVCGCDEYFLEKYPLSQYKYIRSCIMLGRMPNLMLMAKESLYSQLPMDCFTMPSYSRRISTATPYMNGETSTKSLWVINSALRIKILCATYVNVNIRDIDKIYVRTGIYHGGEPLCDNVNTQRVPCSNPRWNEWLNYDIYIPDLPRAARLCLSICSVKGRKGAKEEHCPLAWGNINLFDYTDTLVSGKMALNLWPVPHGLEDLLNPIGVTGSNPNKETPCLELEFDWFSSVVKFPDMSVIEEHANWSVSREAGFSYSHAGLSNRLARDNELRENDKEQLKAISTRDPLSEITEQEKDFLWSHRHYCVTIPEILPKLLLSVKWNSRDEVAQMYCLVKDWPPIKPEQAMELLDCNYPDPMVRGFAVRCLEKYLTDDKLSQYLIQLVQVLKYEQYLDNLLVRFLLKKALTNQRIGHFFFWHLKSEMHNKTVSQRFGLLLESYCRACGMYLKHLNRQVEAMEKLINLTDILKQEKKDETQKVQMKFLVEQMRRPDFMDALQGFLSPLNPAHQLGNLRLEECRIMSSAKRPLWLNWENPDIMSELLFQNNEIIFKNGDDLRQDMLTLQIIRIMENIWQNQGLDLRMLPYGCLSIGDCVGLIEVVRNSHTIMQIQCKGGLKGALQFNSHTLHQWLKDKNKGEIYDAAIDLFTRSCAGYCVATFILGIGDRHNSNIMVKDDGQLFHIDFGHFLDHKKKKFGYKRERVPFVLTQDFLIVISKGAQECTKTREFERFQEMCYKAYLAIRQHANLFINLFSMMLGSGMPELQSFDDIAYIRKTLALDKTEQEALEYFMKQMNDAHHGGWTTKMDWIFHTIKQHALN
Procedure, shortened: as §2

[5] = molecular target: T3, Human mTOR (FLAG-TOR) (Homo sapiens, UniProt P42345); test: Human mTOR kinase assay with purified enzyme, DELFIA format; type: biochemical
T3 construct: FLAG
Procedure, shortened: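 Purified FLAG-mTOR in HEPES pH 7.4 buffer with 10 mM MnCl2 was preincubated with inhibitor and reacted 2 h at room temperature with His6-S6K substrate, then stopped with EDTA/EGTA. Phospho-T389 S6K detected by DELFIA with Eu-labelled antibody (40 ng/mL) after plate capture; inhibition computed from signal.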

| SMILES | IC50 [2] [µM] | IC50 [3] [µM] | IC50 [4] [µM] | IC50 [5] [µM] | IC50 [1] [µM] |
| --- | --- | --- | --- | --- | --- |
| CC(C)(C)OC(=O)N1CCC(n2ncc3c(N4CC5CCC(C4)O5)nc(-c4ccc(NC(=O)Nc5ccccc5)cc4)nc32)CC1 [Example 23, tert-butyl 4-[4-(8-oxa-3-azabicyclo[3.2.1]oct-3-yl)-6-{4-[(phenylcarbamoyl)amino]phenyl}-1H-pyrazolo[3,4-d]pyrimidin-1-yl]piperidine-1-carboxylate] | 0.04 | > 10 | 0.888 | 0.0007 | 0.18 |
| CC(C)(C)OC(=O)N1CCC(n2ncc3c(N4CC5CCC(C4)O5)nc(-c4ccc(NC(=O)Nc5ccncc5)cc4)nc32)CC1 [Example 25, tert-butyl 4-[4-(8-oxa-3-azabicyclo[3.2.1]oct-3-yl)-6-{4-[(pyridin-4-ylcarbamoyl)amino]phenyl}-1H-pyrazolo[3,4-d]pyrimidin-1-yl]piperidine-1-carboxylate] | 0.038 | 1.64 | 0.595 | 0.00047 | 0.07 |
| CCNC(=O)Nc1ccc(-c2nc(N3CC4CCC(C3)O4)c3cnn(C4CCNCC4)c3n2)cc1 [Example 28, 1-ethyl-3-{4-[4-(8-oxa-3-azabicyclo[3.2.1]oct-3-yl)-1-piperidin-4-yl-1H-pyrazolo[3,4-d]pyrimidin-6-yl]phenyl}urea] | 0.79 | 9 | 2.16 | 0.0018 | 1.3 |
| O=C(Nc1ccccc1)Nc1ccc(-c2nc(N3CC4CCC(C3)O4)c3cnn(C4CCNCC4)c3n2)cc1 [Example 29, 1-{4-[4-(8-oxa-3-azabicyclo[3.2.1]oct-3-yl)-1-piperidin-4-yl-1H-pyrazolo[3,4-d]pyrimidin-6-yl]phenyl}-3-phenylurea] | 0.1 | 2.31 | 0.273 | 0.0023 | 0.28 |
| Oc1ccc(Nc2nc(N3CC4CCC(C3)O4)c3cnn(C4CCN(Cc5ccccc5)CC4)c3n2)cc1 [Example 30, 4-{[1-(1-benzylpiperidin-4-yl)-4-(8-oxa-3-azabicyclo[3.2.1]oct-3-yl)-1H-pyrazolo[3,4-d]pyrimidin-6-yl]amino}phenol] | 2.8 | > 10 | 2.45 | 0.26 | 7.6 |
| CCOC(=O)N1CCC(n2ncc3c(N4CC5CCC(C4)O5)nc(-c4ccc(NC(=O)NC5CCN(C)CC5)cc4)nc32)CC1 [Example 36, ethyl 4-[6-(4-{[(1-methylpiperidin-4-yl)carbamoyl]amino}phenyl)-4-(8-oxa-3-azabicyclo[3.2.1]oct-3-yl)-1H-pyrazolo[3,4-d]pyrimidin-1-yl]piperidine-1-carboxylate] | 1.2 | 7.62 | 6.21 | 0.026 | 4.5 |

Now those with a lower IC50 [2], led by results:

| IC50 [2] [µM] | IC50 [3] [µM] | IC50 [4] [µM] | IC50 [5] [µM] | SMILES | IC50 [1] [µM] |
| --- | --- | --- | --- | --- | --- |
| 0.027 | > 10 | 3.85 | 0.00056 | CC(C)(C)OC(=O)N1CCC(n2ncc3c(N4CC5CCC(C4)O5)nc(-c4ccc(NC(=O)NC5CC5)cc4)nc32)CC1 [Example 22, tert-butyl 4-[6-{4-[(cyclopropylcarbamoyl)amino]phenyl}-4-(8-oxa-3-azabicyclo[3.2.1]oct-3-yl)-1H-pyrazolo[3,4-d]pyrimidin-1-yl]piperidine-1-carboxylate] | 0.15 |
| 0.007 | 6.3 | 0.629 | 0.00039 | CC(C)(C)OC(=O)N1CCC(n2ncc3c(N4CC5CCC(C4)O5)nc(-c4ccc(NC(=O)Nc5cccnc5)cc4)nc32)CC1 [Example 24, tert-butyl 4-[4-(8-oxa-3-azabicyclo[3.2.1]oct-3-yl)-6-{4-[(pyridin-3-ylcarbamoyl)amino]phenyl}-1H-pyrazolo[3,4-d]pyrimidin-1-yl]piperidine-1-carboxylate] | 0.018 |
| 0.027 | > 10 | 1.28 | 0.0011 | CNC(=O)Nc1ccc(-c2nc(N3CC4CCC(C3)O4)c3cnn(C4CCN(CC(F)(F)F)CC4)c3n2)cc1 [Example 26, 1-methyl-3-(4-{4-(8-oxa-3-azabicyclo[3.2.1]oct-3-yl)-1-[1-(2,2,2-trifluoroethyl)piperidin-4-yl]-1H-pyrazolo[3,4-d]pyrimidin-6-yl}phenyl)urea] | 0.19 |
| 0.0008 | > 10 | 0.677 | 0.00047 | CNC(=O)Nc1ccc(-c2nc(N3CC4CCC(C3)O4)c3cnn(C4CCN(Cc5cccnc5)CC4)c3n2)cc1 [Example 27, 1-methyl-3-(4-{4-(8-oxa-3-azabicyclo[3.2.1]oct-3-yl)-1-[1-(pyridin-3-ylmethyl)piperidin-4-yl]-1H-pyrazolo[3,4-d]pyrimidin-6-yl}phenyl)urea] | 0.027 |
| 0.0008 | 11 | 1.89 | 0.00036 | CCNC(=O)Nc1ccc(-c2nc(N3CC4CCC(C3)O4)c3cnn(C4CCN(C(=O)OCC)CC4)c3n2)cc1 [Example 31, ethyl 4-[6-{4-[(ethylcarbamoyl)amino]phenyl}-4-(8-oxa-3-azabicyclo[3.2.1]oct-3-yl)-1H-pyrazolo[3,4-d]pyrimidin-1-yl]piperidine-1-carboxylate] | 0.07 |
| 0.009 | 9.5 | 3.32 | 0.00033 | CCOC(=O)N1CCC(n2ncc3c(N4CC5CCC(C4)O5)nc(-c4ccc(NC(=O)NCCF)cc4)nc32)CC1 [Example 32, ethyl 4-[6-(4-{[(2-fluoroethyl)carbamoyl]amino}phenyl)-4-(8-oxa-3-azabicyclo[3.2.1]oct-3-yl)-1H-pyrazolo[3,4-d]pyrimidin-1-yl]piperidine-1-carboxylate] | 0.21 |
| 0.0009 | 4.28 | 0.215 | 0.00036 | CCOC(=O)N1CCC(n2ncc3c(N4CC5CCC(C4)O5)nc(-c4ccc(NC(=O)Nc5ccccc5)cc4)nc32)CC1 [Example 33, ethyl 4-[4-(8-oxa-3-azabicyclo[3.2.1]oct-3-yl)-6-{4-[(phenylcarbamoyl)amino]phenyl}-1H-pyrazolo[3,4-d]pyrimidin-1-yl]piperidine-1-carboxylate] | 0.018 |
| < 0.0008 | 2.61 | 0.314 | 0.00012 | CCOC(=O)N1CCC(n2ncc3c(N4CC5CCC(C4)O5)nc(-c4ccc(NC(=O)Nc5cccnc5)cc4)nc32)CC1 [Example 34, ethyl 4-[4-(8-oxa-3-azabicyclo[3.2.1]oct-3-yl)-6-{4-[(pyridin-3-ylcarbamoyl)amino]phenyl}-1H-pyrazolo[3,4-d]pyrimidin-1-yl]piperidine-1-carboxylate] | 0.025 |
| < 0.0008 | 1.8 | 0.291 | 0.00034 | CCOC(=O)N1CCC(n2ncc3c(N4CC5CCC(C4)O5)nc(-c4ccc(NC(=O)Nc5ccncc5)cc4)nc32)CC1 [Example 35, ethyl 4-[4-(8-oxa-3-azabicyclo[3.2.1]oct-3-yl)-6-{4-[(pyridin-4-ylcarbamoyl)amino]phenyl}-1H-pyrazolo[3,4-d]pyrimidin-1-yl]piperidine-1-carboxylate] | 0.009 |
